From patent US9364448B2, “Nitisinone for treatment of oculocutaneous/ocular albinism and for increasing pigmentation” (The United States of America, as represented by the …, priority 2010, dated 2016) come the findings set out here.

Molecules are shown by their SMILES.

The target of assay [1] is T1, H420R mutant tyrosinase in Melan-c cells (Mus musculus, UniProt P11344, H420R).
T1 construct: expressed in transfected cells; host or cells: Melan-c cells (albino mouse melanocytes), Fugene HD transfection
T1 sequence (P11344 19-533 H420R): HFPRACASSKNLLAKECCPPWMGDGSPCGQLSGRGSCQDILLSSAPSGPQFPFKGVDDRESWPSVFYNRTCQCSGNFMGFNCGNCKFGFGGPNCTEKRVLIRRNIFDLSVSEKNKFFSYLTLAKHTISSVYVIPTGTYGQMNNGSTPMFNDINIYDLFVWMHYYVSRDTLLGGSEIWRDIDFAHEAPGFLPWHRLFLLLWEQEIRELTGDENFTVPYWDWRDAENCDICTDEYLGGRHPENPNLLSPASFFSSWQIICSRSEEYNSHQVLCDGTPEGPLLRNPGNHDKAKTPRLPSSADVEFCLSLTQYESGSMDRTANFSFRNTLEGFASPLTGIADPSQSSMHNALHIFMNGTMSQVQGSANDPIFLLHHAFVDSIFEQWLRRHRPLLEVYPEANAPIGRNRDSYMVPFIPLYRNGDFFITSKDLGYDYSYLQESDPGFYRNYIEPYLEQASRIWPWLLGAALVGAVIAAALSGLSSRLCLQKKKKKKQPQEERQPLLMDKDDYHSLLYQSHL
As to the kind of experiment: Tyrosinase enzyme activity in transfected Melan-c cells, H420R. It counts as cell-based. The note with it: 1 mM tyrosine; Melan-c cells expressing H420R; p=0.03. The procedure:
Melan-c cell cultures. Melan-c cells (melanocytes derived from mice homozygous for the albino mutation (D. C. Bennett et al., Development, 105:379 (1989)) were cultured in RPMI 1640, pH 6.9 supplemented with 5% fetal bovine serum (FBS), streptomycin-penicillin (100 μg/ml each), 200 nM tetradeconyl phorbol acetate (TPA), and 100 μM β-mercaptoethanol, at 37° C. in 10% CO2. Cells were transfected using Fugene HD reagent according to the manufacturer's instructions (Roche Diagnostics Inc., Indianapolis, Ind.) in presence or absence of 1 mM tyrosine. After 24 hours, cells were washed twice with saline phosphate buffer, harvested in 10 mM sodium phosphate, pH 6.8, containing 1% Igepal CA-630 and protease inhibitor (Roche), and microcentrifuged for 30 minutes at 13,200×g, at a temperature of about 4° C. to obtain a protein lysate.
Diphenol oxidase activity of tyrosinase was determined spectrophotometrically according to Slominski et al., J. Invest. Dermatol., 96:172 (1991), with minor modifications. Briefly, the reaction mixtures contained 7 mM L-dopa in 0.1 M sodium phosphate buffer (pH 6.8) and protein lysate (20 mg/ml) was incubated at 37° C. and monitored by measuring the absorbance at 475 nm. All experiments were conducted in triplicate. […]

Assay [2] relates to C57BL/6J-Tyr^c-h/c-h mice (OCA1b model). As to the kind of experiment: Coat and ocular pigmentation, clinical examination and electron microscopy, Tyr^c-h/c-h mice. Type of assay: in vivo, mouse. As to the method:
Animal Husbandry and Clinical Examination. C57BL/6J mice (Stock #000664), C57BL/6JTyr^c-2J/c-2J mice (Stock #000058, MGI ID#1855985), and C57BL/6Tyr^c-h/c-h (Stock #000104, MGI ID#1855979) were obtained from the Jackson Laboratory (Bar Harbor, Me.). Mice were housed according to the institutional Animal Review Board standards with a 14 hour light/10 hour dark cycle. These studies conformed to the principles for laboratory animal research outlined by the Animal Welfare Act (NIH/HHS) and the ARVO Statement for the Use of Animals in Ophthalmic and Vision Research and were approved by the Institutional Animal Care and Use Committee of the National Eye Institute. Clinical examination and imaging of the anterior segment of mice were performed on gently-restrained, awake mice using a Haag-Streit BQ slit lamp and Imaging Module IM900® software (Haag-Streit, Inc., Mason, Ohio). Clinical examination of the posterior segment was performed on gently restrained, awake mice after dilation with one drop of 1% tropicamide (Alcon Laboratories, Inc., Fort Worth, Tex.) using an indirect ophthalmoscope (Keeler, Windsor, Berkshire, UK) with a 90D condensing lens (Volk, Mentor, Ohio). Fundus images were obtained on mice sedated with intraperitoneally injected […] diluted in normal saline. Images were obtained using a Nikon D.90 digital SLR camera with a Nikon 85 mm f/2.8D micro AF-S ED lens mounted to a custom-made aluminum stand, using a 5 cm long Hopkins rigid otoscope coupled to a Xenon Nova light source (175 watt) and fiberoptic cable (Karl Storz, Tuttlingen, Germany). Mice were euthanized with carbon dioxide according to institutional guidelines.
Drug Dosing and Monitoring.
Using the same protocol as described above, baseline plasma tyrosine, coat color (gross and microscopic), anterior segment pigment, and posterior segment pigment was documented for each mouse prior to initiating experiments. […] These treated mice were compared to an age- and gender-matched cohort of C57BL/6J-Tyr^c-h/c-h mice over the same time period. Corneal irritation due to NTBC treatment was monitored daily. At the start of treatment, an area of hair was plucked/shaved from each mouse's back, which has the effect of stimulating new hair growth and possibly new pigment deposition in the hair shaft. At the end of four weeks' time, plasma tyrosine concentrations were assessed in both treated and control animals.
Assessment of the effect treatment and the end of the experimental time period commences with photodocumentation of coat color, anterior segment pigment and posterior segment pigment of each mouse. The mice were sacrificed using standard CO2 euthanasia protocol. One eye from each mouse was submitted for light microscopy, while the other is prepared for electron microscopy. Liver and kidney tissues were collected and processed for light microscopy histology, to insure no pathology is associated with treatment. Additional blood samples were taken and frozen at the time of euthanasia, for possible future studies. Hair shafts in plucked and non-plucked areas were examined and photographed under light microscopy. Melanosome number and size was quantified in the retinal pigmented epithelial cells (RPE) and choroid of the posterior pole of both treated and untreated mice, in a masked fashion, as previously described above.

Setting [3] is: Tyr^c-h/c-h (Himalayan) mice, 4 mg/kg orally every other day, one month.

In the case of `N[C@@H](Cc1ccc(O)cc1)C(=O)O` [tyrosine], the “Tyrosinase enzyme activity over baseline” value in assay [1] is “increased enzyme activity over baseline”.
For the compound `O=C1CCCC(=O)C1C(=O)c1ccc(C(F)(F)F)cc1[N+](=O)[O-]` [NTBC, 2-(-2-nitro-4 trifluoromethylbenzoyl)-1,3 cyclohexanedione], in assay [2] (setting [3]), the Fundus pigmentation result is reported as “grossly unchanged” and the Iris pigmentation result is given as “some increase in iris pigmentation”. The “Coat pigmentation, treated vs control” value in assay [2] (Tyr^c-h/c-h mice, 4 mg/kg orally every other day, one month, shaved patch) is “observable increase in pigmentation”. In addition, in assay [2] (Tyr^c-h/c-h mice, dose as in Example 1 (1 mg/kg every other day), one month), the Phenotypic changes result is given as “no phenotypic changes”. In assay [2] (Tyr^c-h/c-h mice, treated vs control, preliminary data, FIG. 3), the “RPE and choroidal melanosome pigment content (electron microscopy)” value was “significant increase”.
